Laboratory results published in ChEMBL document CHEMBL3596169, “Pyridine hydroxamic acids are specific anti-HCV agents affecting HDAC6” (Bioorg Med Chem Lett, 2015).
Calls of active or inactive are those of the source. The calls are words filed in the database; no cut-off is given here.

Experiments:
[1] = biological target: T1, Protein deacetylase HDAC6 (Homo sapiens) (UniProt Q9UBN7); test: Inhibition of HDAC6 in human Huh-luc/neo7 cells assessed as alpha-tubulin acetylation at 5 to 60 uM by Western blotting analysis; format: cell-based
T1 sequence (whole entry): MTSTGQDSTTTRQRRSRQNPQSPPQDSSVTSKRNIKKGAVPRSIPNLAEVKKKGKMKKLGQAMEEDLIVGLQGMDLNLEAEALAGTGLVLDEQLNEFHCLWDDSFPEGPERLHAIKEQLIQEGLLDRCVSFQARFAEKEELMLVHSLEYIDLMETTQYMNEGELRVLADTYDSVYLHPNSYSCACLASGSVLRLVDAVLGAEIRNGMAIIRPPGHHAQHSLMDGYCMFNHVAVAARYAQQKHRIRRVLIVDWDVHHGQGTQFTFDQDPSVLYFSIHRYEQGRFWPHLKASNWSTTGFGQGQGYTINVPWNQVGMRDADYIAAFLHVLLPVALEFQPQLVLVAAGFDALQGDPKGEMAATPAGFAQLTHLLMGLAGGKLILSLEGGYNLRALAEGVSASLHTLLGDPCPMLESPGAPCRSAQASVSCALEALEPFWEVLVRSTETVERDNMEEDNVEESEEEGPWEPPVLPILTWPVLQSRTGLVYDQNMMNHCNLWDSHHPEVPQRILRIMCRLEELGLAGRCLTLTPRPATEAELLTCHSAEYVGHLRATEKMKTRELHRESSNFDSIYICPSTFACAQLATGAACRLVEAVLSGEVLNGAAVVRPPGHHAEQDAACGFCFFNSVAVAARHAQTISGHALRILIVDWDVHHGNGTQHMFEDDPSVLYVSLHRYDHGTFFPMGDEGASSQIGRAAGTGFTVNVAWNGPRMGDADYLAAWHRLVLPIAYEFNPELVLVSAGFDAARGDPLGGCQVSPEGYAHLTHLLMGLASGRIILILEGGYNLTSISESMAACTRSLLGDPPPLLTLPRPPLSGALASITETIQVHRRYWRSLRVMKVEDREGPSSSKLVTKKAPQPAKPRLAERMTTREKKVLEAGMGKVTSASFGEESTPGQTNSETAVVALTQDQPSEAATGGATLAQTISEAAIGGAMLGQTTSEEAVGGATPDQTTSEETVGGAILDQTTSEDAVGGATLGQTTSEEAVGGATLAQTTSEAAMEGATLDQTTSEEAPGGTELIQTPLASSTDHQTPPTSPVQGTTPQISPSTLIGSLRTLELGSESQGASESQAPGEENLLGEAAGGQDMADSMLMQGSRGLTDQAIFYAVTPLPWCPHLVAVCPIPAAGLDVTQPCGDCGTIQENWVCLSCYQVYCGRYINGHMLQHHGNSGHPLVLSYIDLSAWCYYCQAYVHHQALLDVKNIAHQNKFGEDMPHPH

[2] = Cytotoxicity against human HuH7 cells transfected with luc/neo plasmid assessed as cell viability after 72 hrs by MTT method; format: cell-based, Huh-7
[3] = test system: Hepatitis C virus; test: Antiviral activity against HCV infected in human Huh-luc/neo7 cells after 72 hrs by luciferase assay; format: functional, organism-based, Hepacivirus hominis
[4] = Selectivity index, ratio of CC50 for human HuH7 cells transfected with luc/neo plasmid to EC50 for HCV infected in human Huh-luc/neo7 cells; design: species or system Huh-7
[5] = biological target: T1, Protein deacetylase HDAC6 (Homo sapiens); test: Inhibition of HDAC6 in human Huh-luc/neo7 cells assessed as alpha-tubulin acetylation at 20 to 100 uM by Western blotting analysis; format: cell-based
[6] = biological target: T1, Protein deacetylase HDAC6 (Homo sapiens); test: Inhibition of HDAC6 in human Huh-luc/neo7 cells assessed as alpha-tubulin acetylation at 3 to 24 uM by Western blotting analysis; format: cell-based

Row | Compound | inhibition [1] | CC50 at 72 h [2] | EC50 [3] | Ratio CC50/EC50 [4] | HDAC6 inhibition (active/not active) [5] | inhibition [6]
1 | Cc1ccc(C(=O)NO)cc1 | Active | – | – | – | – | –
2 | CN(O)C(=O)c1ccccn1 | – | > 1000 µM | 240 µM | >4 | – | –
3 | O=C(NO)c1ccccn1 | – | 710 µM | 30 µM | 24 | inactive | –
4 | O=C(NO)c1cccc[n+]1[O-] | – | 900 µM | 6 µM | 150 | inactive | –
5 | O=C(NO)c1ccccc1 | – | – | – | – | Active | –
6 | COc1cccnc1C(=O)NO | – | 880 µM | 5 µM | 180 | – | –
7 | CN(O)C(=O)c1cccc[n+]1[O-] | – | > 1000 µM | > 1000 µM | – | – | –
8 | O=C(NO)c1ccc(Cl)cc1 | – | – | – | – | – | Active
9 | CONC(=O)c1ccccn1 | – | > 1000 µM | > 1000 µM | – | – | –
10 | O=C(NO)c1ncccc1Cl | – | 800 µM | 8 µM | 100 | – | –
11 | Cn1cccc(C(=O)NO)c1=O | – | > 1000 µM | 12 µM | >83 | – | –
12 | O=C(NO)c1cccnc1 [NICOXAMAT] | – | 450 µM | 25 µM | 18 | Active | –
13 | O=C(NO)c1ccc[n+]([O-])c1 | – | > 1000 µM | 20 µM | >50 | Active | –
14 | O=C(NO)c1cc[n+]([O-])cc1 | – | > 1000 µM | 17 µM | >59 | inactive | –
15 | O=C(NO)c1ccncc1 | – | 210 µM | 17 µM | 12 | Active | –
